Experimental findings from PubChem BioAssay AID330 (DTP/NCI, 2004) are described below.

Where “and” joins values, the source holds several entries; their conditions need not be identical. Equal entries are not always repeated. Toxic doses and inconclusive results are not listed.

The assay relates to P388 leukemia ip, CD2F1 mice, survival T/C. Put plainly: NCI In Vivo Anticancer Drug Screen. Data for tumor model P388 Leukemia (intraperitoneal) in CD2F1 (CDF1) mice. The note with it: endpoint: median survival time, higher = longer survival. Summed up: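 Mice carrying the transplanted tumor received test compound or vehicle. Survival was recorded in each group, and the value is the treated-group measurement divided by that of the vehicle-treated control group.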

Setting [1] is: dose: 60.0 mg/kg/injection, schedule: Q01DX005 (ip), vehicle: saline with Tween-80.
Where [2] appears, read: dose: 120.0 mg/kg/injection, schedule: Q01DX005 (ip), vehicle: saline with Tween-80.
[3] abbreviates: dose: 240.0 mg/kg/injection, schedule: Q01DX005 (ip), vehicle: saline with Tween-80.
[4] abbreviates: dose: 50.0 mg/kg/injection, schedule: Q04DX003 (ip), vehicle: saline with Tween-80.
The mark [5] stands for this setting: dose: 100.0 mg/kg/injection, schedule: Q04DX003 (ip), vehicle: saline with Tween-80.
The mark [6] stands for this setting: dose: 200.0 mg/kg/injection, schedule: Q04DX003 (ip), vehicle: saline with Tween-80.
[7] abbreviates: dose: 50.0 mg/kg/injection, schedule: Q01DX009 (ip), vehicle: Klucel (hydroxypropylcellulose) (HPC).
Where [8] appears, read: dose: 100.0 mg/kg/injection, schedule: Q01DX009 (ip), vehicle: Klucel (hydroxypropylcellulose) (HPC).
The mark [9] stands for this setting: dose: 50.0 mg/kg/injection, schedule: Q01DX005 (ip), vehicle: Klucel (hydroxypropylcellulose) (HPC).
Setting [10] is: dose: 100.0 mg/kg/injection, schedule: Q01DX005 (ip), vehicle: Klucel (hydroxypropylcellulose) (HPC).
Where [11] appears, read: dose: 200.0 mg/kg/injection, schedule: Q01DX005 (ip), vehicle: Klucel (hydroxypropylcellulose) (HPC).

Turning to `Cc1ccc2c(c1)C(=Nc1ccc(Cl)cc1)C(=O)N2`, the T/C was 101 % of control (dose: 0.93 mg/kg/injection, schedule: Q01DX005 (ip), vehicle: saline with Tween-80); 93 % of control (dose: 1.87 mg/kg/injection, schedule: Q01DX005 (ip), vehicle: saline with Tween-80); 87 % of control (dose: 3.75 mg/kg/injection, schedule: Q01DX005 (ip), vehicle: saline with Tween-80); 87 % of control (dose: 15.0 mg/kg/injection, schedule: Q01DX005 (ip), vehicle: saline with Tween-80); 99 % of control under setting [1]; 87 % of control under setting [2]. Besides, under setting [3], the T/C was 95 % of control.
For the compound `Cc1ccc2nc3ccccc3cc2c1`, the T/C (dose: 25.0 mg/kg/injection, schedule: Q04DX003 (ip), vehicle: saline with Tween-80) is 104 % of control; the T/C under setting [4] was 100 % of control; the T/C under setting [5] is 95 % of control; the T/C under setting [6] was 99 % of control.
Regarding `CC(=O)CCC12CCC(=O)N1Cc1ccccc1C2=O` (configuration not stated), the T/C by setting is: under setting [1], 106 % of control; under setting [2], 123 % of control; under setting [3], 106 % of control.
Turning to `ClCCN(CCCl)c1ccc(/C=N/Nc2ccnc3ccccc23)cc1`, the T/C reads like this: (dose: 0.39 mg/kg/injection, schedule: Q01DX009 (ip), vehicle: DMSO) 92 % of control; (dose: 0.78 mg/kg/injection, schedule: Q01DX009 (ip), vehicle: DMSO) 87 % of control; (dose: 1.56 mg/kg/injection, schedule: Q01DX009 (ip), vehicle: DMSO) 90 % of control.
For `COC(=O)C1CC2(C(=O)O)CC(C(=O)O)(CC(C(=O)OC)C2=O)C1=O` (configuration not stated), the T/C was 101 % of control under setting [4], 101 % of control under setting [5] and 104 % of control under setting [6].
On to `COC(=O)Nc1ccc(Cc2ccc(NC(=O)OC)cc2)cc1`, for which the T/C (dose: 25.0 mg/kg/injection, schedule: Q01DX009 (ip), vehicle: saline with Tween-80) is 101 % of control and 104 % of control.
Consider `CC(C)C(=O)CCC(C)C1CCC2(C)C3CC=C4C(CCC(O)C4(C)C)C3(C)C(=O)CC12C` (configuration not stated), for which the T/C (dose: 100.0 mg/kg/injection, schedule: Q04DX002 (ip), vehicle: saline) is 100 % of control; the T/C (dose: 200.0 mg/kg/injection, schedule: Q04DX002 (ip), vehicle: saline) was 98 % of control; the T/C (dose: 400.0 mg/kg/injection, schedule: Q04DX002 (ip), vehicle: saline) was 99 % of control.
Take `CCC(CC)(C(=O)Nc1ccc2[nH]c3ccccc3c(=O)c2c1)C(=O)Nc1ccc2[nH]c3ccccc3c(=O)c2c1`: the T/C reads like this: (dose: 50.0 mg/kg/injection, schedule: Q01DX005 (ip), vehicle: saline with Tween-80) 97 % of control; (dose: 100.0 mg/kg/injection, schedule: Q01DX005 (ip), vehicle: saline with Tween-80) 105 % of control; (dose: 200.0 mg/kg/injection, schedule: Q01DX005 (ip), vehicle: saline with Tween-80) 99 % of control.
Regarding `O=C(C[N+](=O)[O-])OCc1ccccc1`, the T/C is, setting by setting: (dose: 12.5 mg/kg/injection, schedule: Q01DX009 (ip), vehicle: other) 101 % of control; (dose: 25.0 mg/kg/injection, schedule: Q01DX009 (ip), vehicle: other) 106 % of control; (dose: 50.0 mg/kg/injection, schedule: Q01DX009 (ip), vehicle: other) 113 % of control; (dose: 100.0 mg/kg/injection, schedule: Q01DX009 (ip), vehicle: other) 103 % of control.
With `Cc1nn(C(=O)c2ccncc2)c(C)c1N=Nc1ccc(S(N)(=O)=O)cc1`, the T/C is 105 % of control under setting [7] and 101 % of control under setting [8].
On to `O=C1CC=C2C3CC4N(CCC45c4cc(O)c(O)cc4N1C25)C/C3=C\CBr` (configuration not stated), for which the T/C reads like this: (dose: 7.5 mg/kg/injection, schedule: Q01DX005 (ip), vehicle: Klucel (hydroxypropylcellulose) (HPC)) 106 % of control; (dose: 15.0 mg/kg/injection, schedule: Q01DX005 (ip), vehicle: Klucel (hydroxypropylcellulose) (HPC)) 108 % of control; (dose: 30.0 mg/kg/injection, schedule: Q01DX005 (ip), vehicle: Klucel (hydroxypropylcellulose) (HPC)) 123 % of control.
Consider `CN(C)CC1CCCC(CN(C)C)C1O` (configuration not stated), for which the T/C by setting is: (dose: 50.0 mg/kg/injection, schedule: Q01DX005 (ip), vehicle: saline) 99 % of control; (dose: 100.0 mg/kg/injection, schedule: Q01DX005 (ip), vehicle: saline) 94 % of control; (dose: 200.0 mg/kg/injection, schedule: Q01DX005 (ip), vehicle: saline) 93 % of control.
For `Cc1cc(Cl)ccc1N=Cc1ccc(C=Nc2ccc(Cl)cc2C)cc1`, the T/C is 94 % of control (dose: 12.5 mg/kg/injection, schedule: Q01DX009 (ip), vehicle: Klucel (hydroxypropylcellulose) (HPC)); 95 % of control (dose: 25.0 mg/kg/injection, schedule: Q01DX009 (ip), vehicle: Klucel (hydroxypropylcellulose) (HPC)); 99 % of control under setting [7].
As for `CCCCCCCCCCCCCCN1CCS(=O)(=O)CC1`, the T/C is 89 % of control under setting [7]; 91 % of control under setting [8]; 90 % of control (dose: 200.0 mg/kg/injection, schedule: Q01DX009 (ip), vehicle: Klucel (hydroxypropylcellulose) (HPC)).
In the case of `COc1ccc(C(C)N(C)C)cc1` (configuration not stated), the T/C was 101 % of control (dose: 50.0 mg/kg/injection, schedule: Q01DX001 (ip), vehicle: other); 99 % of control and 103 % of control (dose: 100.0 mg/kg/injection, schedule: Q01DX001 (ip), vehicle: other); 98 % of control (dose: 200.0 mg/kg/injection, schedule: Q01DX001 (ip), vehicle: other).
In the case of `N#CC1C(=O)NN=C1c1cc2ccccc2oc1=O` (configuration not stated), the T/C is 97 % of control (dose: 100.0 mg/kg/injection, schedule: Q01DX001 (ip), vehicle: saline); 100 % of control (dose: 200.0 mg/kg/injection, schedule: Q01DX001 (ip), vehicle: saline); 97 % of control (dose: 400.0 mg/kg/injection, schedule: Q01DX001 (ip), vehicle: saline).
For `CCCCNP(=O)(N1CC1)N1CC1`, the T/C (dose: 0.2 mg/kg/injection, schedule: Q04DX003 (ip), vehicle: saline) was 95 % of control; the T/C (dose: 0.4 mg/kg/injection, schedule: Q04DX003 (ip), vehicle: saline) is 104 % of control; the T/C (dose: 0.8 mg/kg/injection, schedule: Q04DX003 (ip), vehicle: saline) is 118 % of control; the T/C (dose: 6.0 mg/kg/injection, schedule: Q04DX003 (ip), vehicle: saline) is 195 % of control; the T/C (dose: 6.25 mg/kg/injection, schedule: Q01DX009 (ip), vehicle: saline) is 172 % of control; the T/C (dose: 6.25 mg/kg/injection, schedule: Q04DX003 (ip), vehicle: saline) was 154 % of control. The T/C is, setting by setting: (dose: 12.5 mg/kg/injection, schedule: Q01DX009 (ip), vehicle: saline) 118 % of control; (dose: 12.5 mg/kg/injection, schedule: Q04DX003 (ip), vehicle: saline) 172 % of control; (dose: 25.0 mg/kg/injection, schedule: Q04DX003 (ip), vehicle: saline) 86 % of control.
As for `COc1ccc(C(=O)C2=C(C)Nc3ccc(Br)cc3S2)cc1`, the T/C under setting [1] is 101 % of control, the T/C under setting [2] is 110 % of control and the T/C under setting [3] is 105 % of control.
For the compound `Cc1ccc(S(=O)(=O)/N=S(/C)c2ccccc2)cc1` (configuration not stated), the T/C runs as follows: under setting [5], 110 % of control; under setting [6], 100 % of control; (dose: 400.0 mg/kg/injection, schedule: Q04DX003 (ip), vehicle: saline with Tween-80) 120 % of control.
For `C=C(C)CCOS(=O)(=O)c1ccc(C)cc1`, the T/C reads like this: (dose: 50.0 mg/kg/injection, schedule: Q01DX009 (ip), vehicle: saline with Tween-80) 102 % of control; (dose: 100.0 mg/kg/injection, schedule: Q01DX009 (ip), vehicle: saline with Tween-80) 110 % of control; (dose: 200.0 mg/kg/injection, schedule: Q01DX009 (ip), vehicle: saline with Tween-80) 90 % of control.
In the case of `CC(=NCCCCN=C(C)c1cc(C)ccc1O)c1cc(C)ccc1O`, the T/C runs as follows: under setting [9], 98 % of control; under setting [10], 100 % of control; under setting [11], 103 % of control.
As for `CCOC(=O)c1cnc(NCCCCCCNc2ncc(C(=O)OCC)c(=O)[nH]2)[nH]c1=O`, the T/C reads like this: under setting [9], 97 % of control; under setting [10], 91 % of control.
Regarding `C[Si](C)(C)CC[Si]12OCCN(C3CCCCC3O1)C1CCCCC1O2` (configuration not stated), the T/C under setting [9] was 94 % of control, the T/C under setting [10] is 104 % of control and the T/C under setting [11] was 105 % of control.
